Results reported in BindingDB's records for doi:10.7270/Q2KW5DFJ (Emory University, 2007).

Biological target: T1, Ubiquitin carboxyl-terminal hydrolase BAP1 (Homo sapiens, UniProt Q92560)
T1 sequence (Q92560 whole entry): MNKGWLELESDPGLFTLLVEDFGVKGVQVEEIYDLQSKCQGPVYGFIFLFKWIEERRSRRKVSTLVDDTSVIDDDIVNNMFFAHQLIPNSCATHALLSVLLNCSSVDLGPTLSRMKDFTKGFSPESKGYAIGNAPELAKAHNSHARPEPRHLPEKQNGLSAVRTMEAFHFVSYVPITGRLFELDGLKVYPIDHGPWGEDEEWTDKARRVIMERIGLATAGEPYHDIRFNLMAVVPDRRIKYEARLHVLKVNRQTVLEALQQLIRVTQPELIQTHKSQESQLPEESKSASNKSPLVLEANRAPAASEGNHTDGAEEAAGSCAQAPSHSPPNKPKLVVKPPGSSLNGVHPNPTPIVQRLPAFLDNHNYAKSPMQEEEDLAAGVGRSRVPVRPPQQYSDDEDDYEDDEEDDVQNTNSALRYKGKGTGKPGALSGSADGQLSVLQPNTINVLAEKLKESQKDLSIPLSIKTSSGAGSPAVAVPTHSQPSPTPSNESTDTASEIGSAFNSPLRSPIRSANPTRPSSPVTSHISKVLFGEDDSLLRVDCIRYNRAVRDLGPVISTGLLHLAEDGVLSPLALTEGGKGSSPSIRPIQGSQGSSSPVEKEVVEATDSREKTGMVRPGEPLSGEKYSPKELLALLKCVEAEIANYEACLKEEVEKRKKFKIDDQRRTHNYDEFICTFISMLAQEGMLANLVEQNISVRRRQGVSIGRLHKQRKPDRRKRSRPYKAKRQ
Experiment: inhibition of BAP1 ubiquitin hydrolase activity – biochemical, dose response (AID 714)

| Structure (SMILES) | IC50 |
| --- | --- |
| CCCOC(=O)C1=C(C)N=C2CCCC(=O)C2C1c1cccc(OC)c1OC (configuration not stated) [4-(2,3-dimethoxyphenyl)-2-methyl-5-oxo-4,6,7,8-tetrahydro-1H-quinoline-3-carboxylic acid propyl ester] | 33.9 µM |
| CC(=O)C1=C(C)N=C(SCC(=O)c2ccc(Cl)c(Cl)c2)C(C#N)C1c1ccco1 (configuration not stated) [5-acetyl-2-[2-(3,4-dichlorophenyl)-2-oxoethyl]sulfanyl-4-(furan-2-yl)-6-methyl-1,4-dihydropyridine-3-carbonitrile] | > 50 µM |
